According to US4265829A, “Halogenated-naphthalenetriyltris(sulfonylimino)-aryl disulfonic acids and salts thereof” (American Cyanamid Company, priority 1979, dated 1981):
Counter-ions that a name gives are not always drawn.

Experiments:
activated human C1 = activated human C1 (Homo sapiens, UniProt P09871); assay: Test Code 026 (C1 inhibitor); assay type: biochemical; conditions: serial twofold dilution assay; higher well number indicates higher activity
Description: (§1) An active inhibitor protects C2 from C1 and C4; (ii) Test Code 035 (C3-C9 inhibitor)--This test determines the ability of the late components of human complement (C3-C9) to lyse EAC 142 in the presence of appropriate dilutions of the test compound. An active inhibitor protects EAC 142 from lysis by human C3-C9; (iii) Test Code 036 (C-Shunt inhibitor)--In this test human erythrocytes rendered fragile are lysed in autologous serum via the shunt pathway activated by cobra venom factor in the presence of appropriate dilutions of the test compound. Inhibition of the shunt pathway results in failure of lysis; (iv) Forssman Vasculitis Test--Here, the well known complement dependent lesion, Forssman vasculitis, is produced in guinea pigs by intradermal injection of rabbit anti-Forssman antiserum. […] Percent inhibition is calculated by comparison with simultaneous controls. […]

[1] = test system: serum complement activity; assay: Guinea Pig Intraperitoneal Test (GPIP); assay type: in vivo; conditions: 200 mg./kg. i.p.
Description: An active inhibitor protects C2 from C1 and C4; (ii) Test Code 035 (C3-C9 inhibitor)--This test determines the ability of the late components of human complement (C3-C9) to lyse EAC 142 in the presence of appropriate dilutions of the test compound. An active inhibitor protects EAC 142 from lysis by human C3-C9; (iii) Test Code 036 (C-Shunt inhibitor)--In this test human erythrocytes rendered fragile are lysed in autologous serum via the shunt pathway activated by cobra venom factor in the presence of appropriate dilutions of the test compound. Inhibition of the shunt pathway results in failure of lysis; (iv) Forssman Vasculitis Test--Here, the well known complement dependent lesion, Forssman vasculitis, is produced in guinea pigs by intradermal injection of rabbit anti-Forssman antiserum. The lesion is measured in terms of diameter, edema and hemorrhage and the extent to which a combined index of these is inhibited by prior intraperitoneal injection of the test compound at 200 mg./kg. is then reported, unless otherwise stated; (v) Forssman Shock Test--Lethal shock is produced in guinea pigs by an i.v. injection of anti-Forssman antiserum and the harmonic mean death time of treated guinea pigs is compared with that of simultaneous controls; (vi) Complement Level Reduction Test--In this test, the above dosed guinea pigs, or others, are bled for serum and the complement level is determined in undiluted serum by the capillary tube method of U.S. Pat. No. 3,876,376 and compared to undosed control guinea pigs; (vii) Cap 50 Test--Here, appropriate amounts of the test compound are added to a pool of guinea pig serum in vitro, after which the undiluted serum capillary tube assay referred to above is run. The concentration of compound inhibiting 50% is reported; (viii) Guinea Pig Intraperitoneal Test (GPIP)--Guinea pigs weighing about 300 g. are dosed intraperitoneally (i.p.) with 200 mg./kg. of the test compound dissolved in saline and adjusted to pH 7-8. […] Percent inhibition is calculated by comparison with simultaneous controls. […]

[2] = test system: shunt pathway activated by cobra venom factor; assay: Test Code 036 (C-Shunt inhibitor); assay type: cell-based; conditions: serial twofold dilution assay; human erythrocytes in autologous serum; higher well number indicates higher activity
Description: as §1

[3] = test system: late components of human complement (C3-C9); assay: Test Code 035 (C3-C9 inhibitor); assay type: biochemical; conditions: serial twofold dilution assay; lysis of EAC 142; higher well number indicates higher activity
Description: as §1

Structure (SMILES): O=S(=O)(O)c1cc(NS(=O)(=O)c2cc(S(=O)(=O)Nc3cc(S(=O)(=O)O)cc(S(=O)(=O)O)c3)c3c(Cl)ccc(S(=O)(=O)Nc4cc(S(=O)(=O)O)cc(S(=O)(=O)O)c4)c3c2)cc(S(=O)(=O)O)c1 [5,5',5"-[(8-Chloro-1,3,5-napthalenetriyl)tris (sulfonylimino)]-tri-1,3-benzenedisulfonic acid, hexasodium salt]
- Cl 026 Wells (activated human C1): +7 Wells
- In Vivo Activity (Guinea Pig) % Inhibition Intraperitoneal, 30 minutes ([1]; serum taken 30 minutes after injection): -67%
- In Vivo Activity (Guinea Pig) % Inhibition Intraperitoneal, 60 minutes ([1]; serum taken 60 minutes after injection): -72%
- In Vivo Activity (Guinea Pig) % Inhibition Intraperitoneal, 120 minutes ([1]; serum taken 120 minutes after injection): -81%
- Shunt Inhibition 036 Wells [2]: +5 Wells
- C-Late 035 Wells [3]: +1 Wells
